# Results reported in a melting point compilation (Tetko et al.; mined from patent text by program, amines drawn as free bases though some values may be those of a salt).
row,melting point [°C],Compound
1,> 260,O=C(Nc1ccc(-c2nnn[nH]2)cc1)Oc1ccc([N+](=O)[O-])cc1
2,92 to 104,CNC(=O)CN1CCc2cc(Nc3ncc(Cl)c(N[C@@H]4CCCC[C@H]4NS(C)(=O)=O)n3)c(OC)cc2CC1
3,159 to 160,Cn1nc(C#N)c(Nc2ccc(F)cc2[N+](=O)[O-])n1
4,67 to 68,O=[N+]([O-])c1ccc(-c2ccc(I)cc2C(F)(F)F)c(C(F)(F)F)c1
5,250 to 252,Cc1c(-c2ccncc2)[nH]c(-c2ccncc2)c1C(C)O (stereo not drawn)
6,107 to 109,C=CCn1cc(-c2ccccc2)c(=O)c(-c2cccc(C(F)(F)F)c2)c1
7,137 to 138,CCCC1(CC(=O)OCC)OCCc2c1[nH]c1c(C)cc(F)c(Br)c21 (stereo not drawn)
8,95 to 98,O=C(O)CCCCCCCCCCn1nnnc1S
9,190,CN(C(=O)CCCCO/N=C(\c1ccccc1)c1ccc2c(c1)CN1CC(=O)NC1=N2)C1CCCCC1
10,105,COCc1cc2c(N)cccc2cn1
11,138 to 139,Cn1cc(-c2cccc(N3Cc4cc(C(C)(C)C)ccc4C3=O)c2CO)cc(Nc2ccccn2)c1=O
12,103 to 110,CC(CCc1ccc(O)cc1)NCC(O)c1cccc(Cl)c1 (stereo not drawn)
13,258 to 259,COc1ccc(C(=O)Nc2cc(NC(=O)c3ccc(O)cc3)ccc2C)cc1OC
14,195 to 196,Cc1nc(Sc2ncccc2C(F)(F)F)sc1CC(=O)O
15,97 to 98.5,CCOC(=O)CN1C(=O)C(=O)N(C)C1=O
16,183 to 185,CCOC(=O)C1=CC(C2CC2)c2c(ccc(-c3cc4c(s3)C(O)CCC4)c2OC)C1=O (stereo not drawn)
17,148 to 150,Cc1nc2c(N)cccn2c1C

row,melting point [°C],Compound
1,> 300,CCCCn1c(=O)c2c(NC)n[nH]c2n(Cc2ccccc2[N+](=O)[O-])c1=O
2,70 to 71,CCCCC(Cc1ccc(OCCNC(=O)c2ccc(-c3cc(C)c(OCOC)c(C)c3)cc2)cc1)C(=O)OCC (stereo not drawn)
3,90 to 92,COc1ccc2c(c1)c(CC(=O)Oc1ccc(CN3CCN(CC(C)(C)SN=O)CC3)cc1)c(C)n2C(=O)c1ccc(Cl)cc1
4,266 to 267,CCCCCCCCCCCC(=O)Nc1ccc2nc(S)[nH]c2c1
5,177 to 179,CN1CCC(Oc2cccc(C(=O)Nc3cc(NC(=O)c4ccc(C#N)cc4)ccc3Cl)c2)CC1
6,120 to 123,CSC(=NC#N)NCCSCc1cccnc1Nc1ccccc1
7,135 to 136,O=C1c2c(Cl)cccc2S(=O)(=O)N1CCl
8,109 to 119,CCOC(=S)Nc1nc(OCc2ccc(F)cc2)ncc1F
9,160 to 162,COc1ccc2nc(-c3cc(C)c(OCCO)c(C)c3)n(-c3ccc(Br)cc3)c(=O)c2c1
10,195 to 197,O=C(O)COc1c(F)ccc(-c2c3ccccc3c(Br)c3sc4ccccc4c23)c1F
11,116 to 117,CC(Cc1ccccc1)(C(=O)O)S(=O)(=O)c1cccs1 (stereo not drawn)
12,116 to 117,O=C(NC1C=NC=CC1=O)c1ccccc1F (stereo not drawn)
13,187 to 188,CS(=O)(=O)c1ccc(/C(=C2\CCN(CCO)C2=O)c2ccc(Cl)cc2)cc1
14,90 to 92,CCNC(=O)NCCC1CCc2ccc(OC)cc21 (stereo not drawn)
15,204 to 205,CCN(CC)c1ccc2nc3c4ccc(Br)cc4c(=Nc4ccccn4)cc-3oc2c1
16,145,CC(C)(C)OC(=O)NCCCCCCNC(=O)c1cccc(-c2nc(=O)c3ccccc3s2)n1
17,200 to 203,COc1ccc(C)cc1NC(=O)Nc1ccc(N2CCN(C(=O)Nc3c(C)cccc3OC)CC2)cc1

# Continued, molecule first:
row,Compound,melting point [°C]
1,CN1CCN(CCC/C=C/c2ccc3c(Nc4ccc(Sc5nccn5C)c(Cl)c4)c(C#N)cnc3c2)CC1,219 to 227
2,COc1cc(OCC(CO)CO)c(C=CC(=O)c2ccc(S(=O)(=O)Nc3cc(C)on3)cc2)cc1-c1cccs1,165 to 166
3,CN(C1c2cc(O)ccc2OC(C)(C)C1O)S(C)(=O)=O (stereo not drawn),204 to 206
4,C#Cc1ncn2c1CN(C)C(=O)c1c(Cl)cccc1-2,194 to 195
5,CC(NC(=O)/C=C\C(=O)O)C(O)c1ccccc1 (stereo not drawn),154 to 156
6,O=C(O)CCCc1cc2nc(Cl)ccc2n1S(=O)(=O)c1cccc2cccnc12,186 to 189
7,CCc1cc(C(=O)c2ccccc2Cl)c(-n2c(C)nnc2CNC(=O)c2cccc(C(=O)O)c2)s1,133 to 136
8,CN1Cc2c(C(N)=S)ncn2-c2ccccc2C1=O,295 to 297
9,Cc1sc(-c2ccccc2)nc1COc1cc(COc2ccccc2CC(=O)O)on1,147 to 148
10,COC(=S)c1ccncc1Cc1ccccc1,79 to 80
11,CCCCNC(=S)N1CCc2[nH]cnc2C1,130
12,CC(C)c1cccc(C(C)C)c1NC(=O)CN1CCN(CCSc2nc3ccccc3o2)CC1,161 to 163
13,COc1ccc(CCC(=NNc2ccc(C3=NNC(=O)CC3C)cc2)c2ccc(O)cc2O)cc1OC (stereo not drawn),135 to 140
14,O=C1C(CCC(O)c2ccc(F)cc2)C(c2ccc(-c3cccc(O)c3)cc2)N1c1ccc(F)cc1 (stereo not drawn),107
15,CCCCOC(=O)c1ccc(-c2nc(C(Cl)(Cl)Cl)nc(C(Cl)(Cl)Cl)n2)cc1,109 to 110
16,CC(=O)N(O)CCc1ccc2c(c1)C(=O)c1ccccc1CO2,113 to 115
17,COc1ccc(CCNC(=O)COc2ccc(C[C@H](OC)C(=O)O)cc2)cc1,97 to 98
18,CC(C)Oc1ccc(N)c(CC#N)n1,83 to 85
19,COC(=O)c1ncccc1C(=O)c1ccc(-n2ccnc2)cc1,150 to 157
20,NNc1nc2cc(Cl)ccc2nc1Cl,< 250
21,CC(/C=C/C(=O)N1CCCc2cc3c(cc21)C(C)(C)CCC3(C)C)=C\C(=O)O,225 to 227
22,Cc1c2c(c(-c3ccc(F)cc3)c3c4c(ccc13)OCO4)CNC2=O,293 to 295

row,Compound,melting point [°C]
1,CN1c2ccc(S(=O)(=O)N3CCOCC3)cc2S(=O)(=O)NC1C1CCCCC1 (stereo not drawn),207 to 210
2,Cc1ccc2nc(-c3cccc(C(=O)O)c3)oc2c1,239 to 241
3,COc1ccc(C(=O)COC(C)=O)cc1OC,82 to 84
4,CCc1cc(C(=O)c2ccccc2)c(O)cc1OCCCCC#N,42 to 44
5,CC(CC(C)Oc1ccc(-c2ccc(C#N)cc2)cc1)Oc1ccc(-c2ccc(C#N)cc2)cc1 (stereo not drawn),140
6,CCCCCN1C(=O)C2(COc3cc4c(cc32)OCO4)c2c(C(=O)Nc3cccc(OC)c3)cccc21 (stereo not drawn),173 to 175
7,CC(=O)c1ccc(-n2cnc(C)c2)cc1,100
8,CCCC1=NN(c2ccccc2C(=O)O)C(=O)C1=CNc1ccccc1CC,127
9,OCCN1CCN(C2=Nc3ccccc3Sc3ccccc32)CC1,57 to 60
10,CC(Cc1ccc(OCc2ccncc2)cc1)NCC(O)c1cccc(Cl)c1 (stereo not drawn),85 to 110
11,O=C1Cc2cc(F)ccc2C(c2ccc(Cl)cc2)N1 (stereo not drawn),160 to 161
12,C=CCc1cc(C)c2c(c1O)C(C)(C)C(=O)N2Cc1ccccc1,161 to 162
13,Cc1ccc(S(=O)(=O)OCC2OC(n3ccc(=O)[nH]c3=O)CC2O)cc1 (stereo not drawn),162
14,CCOC(=O)C=Cc1c(C#N)cnn1-c1ccc(Cl)c(Cl)c1Cl,131 to 134
15,CCCCNc1cc(C(=O)O)cc(S(N)(=O)=O)c1Nc1ccccc1,230 to 231
16,O=C(Nc1ccccc1N1CCc2cc(Cl)ccc21)c1ccccc1,44 to 46
17,COC[C@@H]1CC[C@H](c2ccc(F)cc2)N1S(=O)(=O)c1ccc(C)cc1 (racemic),152
18,Nc1nc(C(F)(F)F)c(-c2ccncc2)cc1C(=O)O,> 283
19,CCOC(=O)c1cn(C)c2c(=O)c3ccccc3oc2c1=O,251 to 254
20,C#CCONC(=O)c1nc(-c2ccc(Cl)c(OC)c2F)cc(N)c1Cl,180 to 183
21,COc1ccc(CCCCCCCC(=O)O)cc1,42 to 43
22,CCCCCCCCc1ccc(OC(=O)c2ccc([C@H]3CC[C@H](CCC)C3)cc2)cc1 (relative stereo),36

row,Compound,melting point [°C]
1,O=c1c(-c2ccccc2)c(Cn2cnc3ccccc32)oc2ccc(Br)cc12,192 to 197
2,C#CC(C)OC(=O)c1cccc2ccccc12 (stereo not drawn),66 to 68
3,CC(=O)OCC(=O)C1(O)C(C)CC2C3CC(C)C4=CC(=O)C=CC4(C)C3=CCC21C (stereo not drawn),215 to 216
4,NC1=NN(c2cccc(Cl)c2)C(c2ccccc2)C1 (stereo not drawn),164 to 165
5,Cc1cccc(C)c1N1CCN(CCNc2cnn(C)c(=O)c2Cl)CC1,235 to 242
6,CCOC(=O)/C=C/c1cn(Cc2ccc(Oc3ccccc3)cc2)nc1OCc1nc(-c2ccccc2)oc1C,93 to 94
7,COc1ccc(-c2cc(=Nc3ccc(OCC(O)CNC(C)C)cc3)n(C)c(=O)n2C)cc1OC (stereo not drawn),129 to 132
8,CC(=O)OCCOc1cc(-n2c(=O)cc(C(F)(F)F)n(C)c2=O)c(F)cc1Cl,88 to 90
9,O=C(Nc1ccccc1)N1CCc2ccccc2C1,145 to 146
10,Nc1cc([N+](=O)[O-])cnc1Nc1ccccc1F,171 to 172
11,CCC1=Nc2ccccc2CC(c2cccnc2)N1C (stereo not drawn),72 to 75
12,CSc1ccc(C(=O)Nc2cc(-c3c(-c4ccc(F)c(C)c4)nc4cccnn34)ccn2)cc1,191 to 192
13,CC1(C)CCC(C)(C)c2cc(-c3csc(C=CC(=O)O)c3)ccc21,182 to 185
14,COc1ccc2cc(-c3cc4c(cc3[N+](=O)[O-])OCO4)ccc2c1,165 to 167
15,CCOC(=O)C1=Cc2cc(Cl)cc(-c3ccccc3)c2OC1C(F)(F)F (stereo not drawn),196 to 198
16,COc1ccc(COC(=O)ON=C(C#N)c2ccccc2)cc1,112 to 113
17,CCOC(=O)C1=C(C(F)(F)F)NC(N)(C(F)(F)F)C(C(=O)OCC)S1 (stereo not drawn),87.5 to 89
18,COC(=O)c1ccc2oc(CCCCCc3cc4cc(C(=O)OC)ccc4o3)cc2c1,83 to 85
19,Cc1[nH]c(C=O)c2c1-c1ccc(Cl)cc1C(c1ccccc1Cl)=NC2,274 to 276
20,CCC1=CC(Cl)(NC2CCC(C(C(=O)OC)C(=O)OC)CC2)NC=N1 (stereo not drawn),82 to 83
